Consider six compounds from ChEMBL document CHEMBL1268952, “Design, synthesis, and evaluation of indolinones as inhibitors of the transforming growth factor β receptor I (TGFβRI)” (J Med Chem, 2010).

The nature of test [1]: Inhibition of AMPK at 1 uM; values are per cent of control.
Test [2] concerns the target T1, Serine/threonine-protein kinase Sgk1 (Homo sapiens) (UniProt O00141).
T1 sequence (whole entry): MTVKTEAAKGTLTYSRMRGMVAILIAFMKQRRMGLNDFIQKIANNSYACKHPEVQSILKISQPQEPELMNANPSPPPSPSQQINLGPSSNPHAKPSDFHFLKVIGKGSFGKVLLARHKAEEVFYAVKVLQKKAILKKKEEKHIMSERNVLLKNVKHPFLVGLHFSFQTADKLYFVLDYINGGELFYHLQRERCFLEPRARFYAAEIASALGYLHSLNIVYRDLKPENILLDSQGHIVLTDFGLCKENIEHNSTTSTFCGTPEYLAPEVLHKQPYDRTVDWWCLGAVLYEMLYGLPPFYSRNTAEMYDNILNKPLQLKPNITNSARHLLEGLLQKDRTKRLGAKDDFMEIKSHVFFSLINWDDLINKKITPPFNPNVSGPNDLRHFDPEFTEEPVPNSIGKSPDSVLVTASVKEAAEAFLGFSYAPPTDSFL
Description: Inhibition of SGK at 1 uM; values are per cent of control.

The nature of test [3]: Inhibition of PKB at 1 uM; values are per cent of control.
Test [4] concerns the target Mitogen-activated protein kinase 14 (Homo sapiens) (UniProt Q16539). Description: Inhibition of p38alpha at 1 uM; values are per cent of control.
A short description of test [5]: Inhibition of PKA at 1 uM; values are per cent of control.
Test [6] has as its target Rho-associated protein kinase 2 (Homo sapiens) (UniProt O75116). Description: Inhibition of ROCK2 at 1 uM; values are per cent of control.
Test [7] addresses Mitogen-activated protein kinase 8 (Homo sapiens) (UniProt P45983). Description: Inhibition of SAPK1c at 2 uM.
The target of test [8] is Mitogen-activated protein kinase 1 (Homo sapiens) (UniProt P28482). Description: Inhibition of ERK2 at 1 uM; values are per cent of control.
Sequence of Mitogen-activated protein kinase 1 (Homo sapiens) (P28482 whole entry): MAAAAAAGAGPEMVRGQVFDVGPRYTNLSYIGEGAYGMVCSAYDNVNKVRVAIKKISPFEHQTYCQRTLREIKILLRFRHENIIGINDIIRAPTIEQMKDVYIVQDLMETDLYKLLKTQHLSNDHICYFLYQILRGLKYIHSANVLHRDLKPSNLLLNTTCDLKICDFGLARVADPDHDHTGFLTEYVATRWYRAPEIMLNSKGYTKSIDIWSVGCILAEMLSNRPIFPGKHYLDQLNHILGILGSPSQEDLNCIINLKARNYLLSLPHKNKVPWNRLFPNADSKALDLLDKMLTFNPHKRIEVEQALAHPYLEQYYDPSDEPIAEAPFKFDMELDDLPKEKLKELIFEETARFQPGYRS
Test [9] deals with Protein kinase C alpha type (Homo sapiens) (UniProt P17252). Description: Inhibition of PKCalpha at 1 uM; values are per cent of control.
For test [10], the target named is Serine/threonine-protein kinase Nek6 (Homo sapiens) (UniProt Q9HC98). Description: Inhibition of NEK6 at 1 uM; values are per cent of control.
Sequence of Serine/threonine-protein kinase Nek6 (Homo sapiens) (Q9HC98 whole entry): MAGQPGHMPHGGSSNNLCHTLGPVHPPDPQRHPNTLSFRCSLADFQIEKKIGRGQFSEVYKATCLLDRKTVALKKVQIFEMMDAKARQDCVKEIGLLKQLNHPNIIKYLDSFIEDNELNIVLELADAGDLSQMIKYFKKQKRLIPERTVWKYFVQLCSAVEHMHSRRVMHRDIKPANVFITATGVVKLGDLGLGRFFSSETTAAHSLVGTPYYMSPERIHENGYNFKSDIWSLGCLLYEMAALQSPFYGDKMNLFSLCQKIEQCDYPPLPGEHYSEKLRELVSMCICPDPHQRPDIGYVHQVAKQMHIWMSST
For test [11], the target named is T2, Lymphokine-activated killer T-cell-originated protein kinase (Homo sapiens) (UniProt Q96KB5).
T2 sequence (whole entry): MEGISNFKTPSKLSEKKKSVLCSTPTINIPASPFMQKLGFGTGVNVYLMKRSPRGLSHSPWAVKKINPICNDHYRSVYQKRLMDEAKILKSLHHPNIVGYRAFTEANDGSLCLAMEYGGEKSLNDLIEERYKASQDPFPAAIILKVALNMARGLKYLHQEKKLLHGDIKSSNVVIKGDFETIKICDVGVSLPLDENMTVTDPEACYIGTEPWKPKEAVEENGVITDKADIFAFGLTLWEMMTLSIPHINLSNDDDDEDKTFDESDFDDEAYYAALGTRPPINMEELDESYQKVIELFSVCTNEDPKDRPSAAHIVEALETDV
Description: Inhibition of PBK at 1 uM; values are per cent of control.

For test [12], the target named is Tyrosine-protein kinase CSK (Homo sapiens) (UniProt P41240). Description: Inhibition of CSK at 1 uM; values are per cent of control.
Sequence of Tyrosine-protein kinase CSK (Homo sapiens) (P41240 2-450 limits assumed): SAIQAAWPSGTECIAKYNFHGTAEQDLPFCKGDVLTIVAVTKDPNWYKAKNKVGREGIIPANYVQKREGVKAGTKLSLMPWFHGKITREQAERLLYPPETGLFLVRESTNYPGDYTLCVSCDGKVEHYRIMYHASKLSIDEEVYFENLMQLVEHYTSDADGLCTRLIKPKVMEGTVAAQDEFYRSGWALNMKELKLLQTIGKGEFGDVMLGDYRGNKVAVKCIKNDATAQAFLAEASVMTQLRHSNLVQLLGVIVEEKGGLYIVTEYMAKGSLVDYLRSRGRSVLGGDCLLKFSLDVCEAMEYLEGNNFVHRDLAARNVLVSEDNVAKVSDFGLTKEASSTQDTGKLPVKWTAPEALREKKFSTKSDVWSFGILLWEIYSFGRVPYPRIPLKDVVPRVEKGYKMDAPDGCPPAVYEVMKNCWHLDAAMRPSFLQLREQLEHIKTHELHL
Test [13] in a line: Inhibition of CK1 at 1 uM; values are per cent of control.
Test [14] in a line: Inhibition of CK2 at 1 uM; values are per cent of control.
Test [15] concerns the target T3, Serine/threonine-protein kinase Chk1 (Homo sapiens) (UniProt O14757).
T3 sequence (whole entry): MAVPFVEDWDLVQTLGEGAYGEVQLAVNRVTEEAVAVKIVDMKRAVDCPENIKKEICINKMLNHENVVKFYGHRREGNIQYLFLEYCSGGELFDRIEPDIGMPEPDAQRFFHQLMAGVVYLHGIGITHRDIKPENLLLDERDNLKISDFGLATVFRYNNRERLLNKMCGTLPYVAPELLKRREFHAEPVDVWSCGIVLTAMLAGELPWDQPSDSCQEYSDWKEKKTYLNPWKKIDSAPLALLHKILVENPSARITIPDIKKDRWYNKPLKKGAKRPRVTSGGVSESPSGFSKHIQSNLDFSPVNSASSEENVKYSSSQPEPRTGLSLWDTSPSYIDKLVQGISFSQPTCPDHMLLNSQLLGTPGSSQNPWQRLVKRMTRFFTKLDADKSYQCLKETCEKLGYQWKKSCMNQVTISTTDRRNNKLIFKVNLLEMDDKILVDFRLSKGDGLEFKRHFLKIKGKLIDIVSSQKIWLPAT
Description: Inhibition of CHK1 at 1 uM; values are per cent of control.

Test [16] addresses Dual specificity mitogen-activated protein kinase kinase 1 (Homo sapiens) (UniProt Q02750). Description: Inhibition of MKK1A at 1 uM; values are per cent of control.
Test [17] deals with Dual specificity tyrosine-phosphorylation-regulated kinase 1A (Homo sapiens) (UniProt Q13627). Description: Inhibition of DYRK1A at 1 uM; values are per cent of control.
Test [18] concerns the target Glycogen synthase kinase-3 beta (Homo sapiens) (UniProt P49841). Description: Inhibition of GSK3-beta at 1 uM; values are per cent of control.

Sequence of Mitogen-activated protein kinase 14 (Homo sapiens) (Q16539 whole entry): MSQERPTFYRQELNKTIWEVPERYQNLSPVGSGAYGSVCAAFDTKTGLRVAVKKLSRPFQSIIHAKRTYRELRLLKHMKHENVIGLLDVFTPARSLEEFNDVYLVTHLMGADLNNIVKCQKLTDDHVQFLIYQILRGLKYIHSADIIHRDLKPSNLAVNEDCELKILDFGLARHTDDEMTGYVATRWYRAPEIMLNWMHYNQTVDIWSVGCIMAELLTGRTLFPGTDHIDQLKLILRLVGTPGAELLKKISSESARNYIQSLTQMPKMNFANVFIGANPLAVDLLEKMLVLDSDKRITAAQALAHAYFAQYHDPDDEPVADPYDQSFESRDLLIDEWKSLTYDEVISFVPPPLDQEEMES
Sequence of Rho-associated protein kinase 2 (Homo sapiens) (O75116 whole entry, looked up): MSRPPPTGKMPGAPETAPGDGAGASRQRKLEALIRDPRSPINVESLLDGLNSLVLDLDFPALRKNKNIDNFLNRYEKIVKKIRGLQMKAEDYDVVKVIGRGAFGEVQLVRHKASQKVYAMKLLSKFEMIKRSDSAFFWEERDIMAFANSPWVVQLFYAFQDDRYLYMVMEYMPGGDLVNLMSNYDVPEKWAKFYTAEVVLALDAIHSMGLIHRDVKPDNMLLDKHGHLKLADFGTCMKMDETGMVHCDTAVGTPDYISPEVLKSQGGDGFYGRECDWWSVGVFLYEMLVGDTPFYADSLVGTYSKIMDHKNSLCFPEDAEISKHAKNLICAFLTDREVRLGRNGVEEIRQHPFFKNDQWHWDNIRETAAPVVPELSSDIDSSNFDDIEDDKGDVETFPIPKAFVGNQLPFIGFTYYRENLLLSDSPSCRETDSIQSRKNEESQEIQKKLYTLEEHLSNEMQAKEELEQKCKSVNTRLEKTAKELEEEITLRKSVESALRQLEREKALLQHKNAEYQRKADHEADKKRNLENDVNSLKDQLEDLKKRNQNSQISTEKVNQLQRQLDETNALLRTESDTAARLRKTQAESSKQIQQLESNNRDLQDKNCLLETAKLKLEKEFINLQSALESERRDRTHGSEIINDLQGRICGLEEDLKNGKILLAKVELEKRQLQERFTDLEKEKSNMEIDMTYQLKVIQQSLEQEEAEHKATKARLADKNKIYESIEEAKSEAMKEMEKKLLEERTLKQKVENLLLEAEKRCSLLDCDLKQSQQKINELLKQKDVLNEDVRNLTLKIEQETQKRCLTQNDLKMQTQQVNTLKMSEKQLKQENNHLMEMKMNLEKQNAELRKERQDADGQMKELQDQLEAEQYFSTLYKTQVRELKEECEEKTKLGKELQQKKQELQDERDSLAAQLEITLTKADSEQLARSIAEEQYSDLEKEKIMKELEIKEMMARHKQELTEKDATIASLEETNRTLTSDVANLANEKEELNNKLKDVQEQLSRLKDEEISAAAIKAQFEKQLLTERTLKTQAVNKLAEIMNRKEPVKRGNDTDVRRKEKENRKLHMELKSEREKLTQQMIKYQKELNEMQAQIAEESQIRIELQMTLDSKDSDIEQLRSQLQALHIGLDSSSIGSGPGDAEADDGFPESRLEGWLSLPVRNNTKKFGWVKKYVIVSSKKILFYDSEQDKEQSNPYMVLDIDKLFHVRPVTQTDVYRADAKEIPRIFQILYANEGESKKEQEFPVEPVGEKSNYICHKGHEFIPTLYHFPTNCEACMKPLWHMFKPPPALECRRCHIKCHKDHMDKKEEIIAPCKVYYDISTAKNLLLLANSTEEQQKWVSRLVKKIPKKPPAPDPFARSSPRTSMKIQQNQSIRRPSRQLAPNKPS
Sequence of Glycogen synthase kinase-3 beta (Homo sapiens) (P49841 whole entry, looked up): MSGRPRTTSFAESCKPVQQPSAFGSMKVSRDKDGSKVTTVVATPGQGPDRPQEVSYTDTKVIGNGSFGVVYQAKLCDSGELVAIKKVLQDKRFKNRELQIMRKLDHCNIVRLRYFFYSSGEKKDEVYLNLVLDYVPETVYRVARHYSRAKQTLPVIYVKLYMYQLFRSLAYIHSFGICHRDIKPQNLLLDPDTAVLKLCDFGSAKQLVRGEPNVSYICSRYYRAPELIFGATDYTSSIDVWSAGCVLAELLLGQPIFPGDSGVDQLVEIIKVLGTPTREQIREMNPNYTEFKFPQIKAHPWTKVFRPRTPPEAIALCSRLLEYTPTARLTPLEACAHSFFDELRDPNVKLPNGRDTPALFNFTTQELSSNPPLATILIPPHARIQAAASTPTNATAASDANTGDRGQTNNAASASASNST
Sequence of Dual specificity mitogen-activated protein kinase kinase 1 (Homo sapiens) (Q02750 whole entry): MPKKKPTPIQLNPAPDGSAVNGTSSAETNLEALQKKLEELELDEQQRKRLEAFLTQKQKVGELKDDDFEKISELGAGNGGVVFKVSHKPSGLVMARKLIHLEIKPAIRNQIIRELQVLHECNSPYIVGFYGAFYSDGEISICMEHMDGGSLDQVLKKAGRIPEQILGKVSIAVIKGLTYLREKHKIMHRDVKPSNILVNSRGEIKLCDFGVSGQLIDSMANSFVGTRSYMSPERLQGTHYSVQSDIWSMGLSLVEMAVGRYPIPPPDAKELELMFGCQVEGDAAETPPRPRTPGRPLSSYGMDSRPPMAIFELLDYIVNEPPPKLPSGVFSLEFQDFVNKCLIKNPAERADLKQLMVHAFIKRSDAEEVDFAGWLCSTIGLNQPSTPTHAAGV
Sequence of Mitogen-activated protein kinase 8 (Homo sapiens) (P45983 whole entry): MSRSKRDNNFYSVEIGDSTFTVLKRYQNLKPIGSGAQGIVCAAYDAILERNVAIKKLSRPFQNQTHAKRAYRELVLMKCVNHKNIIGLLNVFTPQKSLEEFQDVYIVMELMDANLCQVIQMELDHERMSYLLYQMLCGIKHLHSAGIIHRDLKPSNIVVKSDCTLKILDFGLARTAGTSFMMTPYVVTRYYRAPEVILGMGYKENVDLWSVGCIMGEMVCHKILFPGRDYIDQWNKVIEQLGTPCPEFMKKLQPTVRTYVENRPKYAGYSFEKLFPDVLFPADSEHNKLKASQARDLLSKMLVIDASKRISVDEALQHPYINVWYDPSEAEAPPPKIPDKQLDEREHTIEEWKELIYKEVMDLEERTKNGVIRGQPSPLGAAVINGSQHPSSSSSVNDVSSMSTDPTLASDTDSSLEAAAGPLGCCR

Consider `CN(C)C(=O)c1ccc2c(c1)/C(=C(/Nc1ccc(CN3CCCCC3)cc1)c1ccccc1)C(=O)N2`, for which the residual activity in test [1] was 2%; in [2], 68%; in [3] it was 93%; in test [4], 91%; in [5] it was 69%; in [6], 79%. Moreover, the residual activity in test [7] was 90%; in test [8], 95%; in test [9], 28%; in test [10] it was 87%; in test [11] it was 19%; in test [12], 74%. The residual activity in test [13] was found to be 95%; in [14], 73%; in test [15], 8%; in test [16] it was 4%; in [17], 45%; in test [18], 5%.

Consider `CCNCc1ccc(N/C(=C2\C(=O)Nc3cc(C(=O)N(C)CC)ccc32)c2ccccc2)cc1`, for which the residual activity in [1] amounted to 81%; in [2], 106%; in [3] it was 92%; in [4], 85%; in test [5], 96%; in test [6], 80%. Besides, the residual activity in test [7] was found to be 91%; in test [8] it was 87%; in [9], 85%; in test [10], 92%; in [11], 88%; in [12], 78%. Also, the residual activity in test [13] came out at 90%; in test [14], 86%; in [15], 85%; in test [16], 50%; in [17], 86%; in test [18], 56%.

Regarding `CCN(C)C(=O)c1ccc2c(c1)NC(=O)/C2=C(\Nc1ccc(CN2CCCCC2)cc1)c1ccccc1`, the residual activity was found to be 80% in test [1]; 123% in [2]; 97% in test [3]; 92% in test [4]; 96% in [5]; 88% in test [6]. Moreover, the residual activity in test [7] came to 89%; in test [8], 96%; in test [9] it was 88%; in [10] it was 88%; in test [11] it was 150%; in test [12], 72%. In addition, the residual activity in test [13] was 108%; in test [14] it was 98%; in test [15] it was 74%; in test [16] it was 47%; in test [17], 88%; in test [18], 82%.

Consider `CCNC(=O)c1ccc2c(c1)NC(=O)/C2=C(\Nc1ccc(N(CCN(C)C)S(C)(=O)=O)cc1)c1ccccc1`, for which the residual activity worked out at 74% in test [1]; 107% in [2]; 90% in test [3]; 110% in [4]; 75% in test [5]; 88% in [6]. The residual activity in test [7] worked out at 105%; in test [8] it was 104%; in [9], 100%; in test [10], 118%; in [11], 101%; in test [12] it was 83%. Besides, the residual activity in [13] came out at 100%; in test [14], 94%; in [15] it was 51%; in test [16], 80%; in [17], 96%; in test [18], 124%.

`CCNC(=O)c1ccc2c(c1)NC(=O)/C2=C(\Nc1ccc(CN(C)C)cc1)c1ccccc1`: the residual activity in [1] was determined as 85%; in test [2], 124%; in [3], 106%; in [4] it was 121%; in test [5], 90%; in [6] it was 95%. In addition, the residual activity is 99% in test [7]; 98% in [8]; 89% in [9]; 123% in test [10]; 102% in test [11]; 96% in [12]. Besides, the residual activity in test [13] was 102%; in [14], 95%; in test [15], 84%; in test [16] it was 93%; in test [17], 105%; in test [18], 114%.

Consider `O=C1Nc2ccccc2/C1=C(/Nc1ccc(CN2CCCCC2)cc1)c1ccccc1`, for which the residual activity in [1] is 4%; in [2] it was 20%; in test [3], 88%; in [4], 96%; in test [5] it was 12%; in test [6], 54%. Besides, the residual activity in test [7] was found to be 8%; in test [8] it was 77%; in test [9], 29%; in [10] it was 86%; in test [11], 5%; in [12] it was 32%. Moreover, the residual activity in [13] was 17%; in test [14], 90%; in [15] it was 6%; in [16], 0%; in test [17] it was 18%; in test [18] it was 1%.
